The first assay concerns the target T1, Recombinant human liver GK1 (GST-GK) (Homo sapiens, UniProt P35557).
T1 construct: made in house; host or cells: E. coli
T1 sequence (P35557 1-466 isoform P35557-2): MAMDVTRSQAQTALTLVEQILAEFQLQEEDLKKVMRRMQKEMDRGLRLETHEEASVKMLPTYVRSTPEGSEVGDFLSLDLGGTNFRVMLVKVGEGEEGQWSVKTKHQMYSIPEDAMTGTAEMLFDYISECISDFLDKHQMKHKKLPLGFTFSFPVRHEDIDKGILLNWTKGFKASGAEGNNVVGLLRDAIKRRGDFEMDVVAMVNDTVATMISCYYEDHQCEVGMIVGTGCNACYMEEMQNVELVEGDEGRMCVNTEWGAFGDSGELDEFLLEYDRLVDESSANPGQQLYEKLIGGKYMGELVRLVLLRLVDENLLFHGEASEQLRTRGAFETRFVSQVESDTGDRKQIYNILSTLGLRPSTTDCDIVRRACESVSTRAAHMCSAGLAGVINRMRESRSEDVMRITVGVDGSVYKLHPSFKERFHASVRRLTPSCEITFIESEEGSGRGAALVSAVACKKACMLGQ
Kind of assay: In vitro glucokinase activity assay (G6PDH-coupled, NADH, OD340). It counts as biochemical. The conditions noted are these: at 30 μM. As to the method:
Glucokinase In Vitro Assay Protocol: Glucokinase (GK) was assayed by coupling the production of glucose-6-phosphate to the generation of NADH with glucose-6-phosphate dehydrogenase (G6PDH, 0.75-1 kunits/mg; Boehringer Mannheim, Indianapolis, Ind.) from Leuconostoc mesenteroides as the coupling enzyme (Scheme 2).
Recombinant human liver GK1 was expressed in E. coli as a glutathione S-transferase fusion protein (GST-GK) [Liang et al, 1995] and was purified by chromatography over a glutathione-Sepharose 4B affinity column using the procedure provided by the manufacturer (Amersham Pharmacia Biotech, Piscataway, N.J.).
The assay was conducted at 30° C. in a flat bottom 96-well tissue culture plate from Costar (Cambridge, Mass.) with a final incubation volume of 120 μL. The incubation reaction contained the following: 25 mM Hepes buffer (pH 7.1), 25 mM KCl, 5 mM D-glucose, 1 mM ATP, 1.8 mM NAD, 2 mM MgCl2, 1 μM sorbitol-6-phosphate, 1 mM dithiothreitol, test drug or 10% dimethylsulfoxide, ˜7 units/ml G6PDH, and GK (see below). All organic reagents were >98% pure and were from Boehringer Mannheim with the exceptions of D-glucose and Hepes which were from Sigma Chemical Co, St Louis, Mo. Test compounds were dissolved in dimethylsulfoxide and were added to the incubation reaction minus GST-GK in a volume of 12 μL to yield a final dimethylsulfoxide concentration of 10%. This mix was pre-incubated in the temperature controlled chamber of a SPECTRAmax 250 microplate spectrophotometer (Molecular Devices Corporation, Sunnyvale, Calif.) for 10 minutes to allow temperature equilibrium and then the reaction was started by the addition of 20 μL GST-GK.
After addition of enzyme, the increase in optical density (OD) at 340 nm was monitored spectrophotometrically to determine the rate of change (OD340 per min). The GK activity (OD340/min) in control wells (10% dimethylsulfoxide minus GK activators) was compared with the activity in wells containing test GK activators, and the concentration of activator that produced a 50% increase in the activity of GK, i.e., the SC1.5, was calculated.
`COc1cnc2[nH]c(C(CC3CCCC3)c3ccc(C(C)(C)O)cc3)cc2c1` (stereo not shown) [Example 35, 2-{4-[2-Cyclopentyl-1-(5-methoxy-1H-pyrrolo[2,3-b]pyridin-2-yl)-ethyl]-phenyl}-propan-2-ol]: the “fold activation of GK” value is 1.4 fold at 30.

The assay is the same for the next values; noted with them: concentration of activator that produced a 50% increase in the activity of GK; 5 mM D-glucose, 30° C.
With `CS(=O)(=O)c1ccc(C(CC2CCCC2)c2cc3cc(CO)cnc3[nH]2)cc1` (stereo not shown) [Example 8, {2-[2-Cyclopentyl-1-(4-methanesulfonyl-phenyl)-ethyl]-1H-pyrrolo[2,3-b]pyridin-5-yl}-methanol], the SC1.5 turned out to be 3.4 µM. Still for that read-out and setting: next, `CS(=O)(=O)c1ccc(C(CC2CCCC2)c2cc3cc(CC(O)CO)cnc3[nH]2)cc1` (stereo not shown) [Example 11, 3-{2-[2-Cyclopentyl-1-(4-methanesulfonyl-phenyl)-ethyl]-1H-pyrrolo[2,3-b]pyridin-5-yl}-propane-1,2-diol]: 7.3 µM; `COc1cnc2[nH]c(C(CC3CCCC3)c3ccc(S(C)(=O)=O)cc3)cc2c1` (stereo not shown) [Example 12, 2-[2-Cyclopentyl-1-(4-methanesulfonyl-phenyl)-ethyl]-5-methoxy-1H-pyrrolo[2,3-b]pyridine]: 0.18 µM; `CN(C)C(=O)COc1cnc2[nH]c(C(CC3CCCC3)c3ccc(S(C)(=O)=O)cc3)cc2c1` (stereo not shown) [Example 13, 2-{2-[2-Cyclopentyl-1-(4-methanesulfonyl-phenyl)-ethyl]-1H-pyrrolo[2,3-b]pyridin-5-yloxy}-N,N-dimethyl-acetamide]: 2.0 µM. In the case of `COCCOc1cnc2[nH]c(C(CC3CCCC3)c3ccc(S(C)(=O)=O)cc3)cc2c1` (stereo not shown) [Example 15, 2-[2-Cyclopentyl-1-(4-methanesulfonyl-phenyl)-ethyl]-5-(2-methoxy-ethoxy)-1H-pyrrolo[2,3-b]pyridine], the SC1.5 turned out to be 0.451 µM. Turning to `CN(C)CCOc1cnc2[nH]c(C(CC3CCCC3)c3ccc(S(C)(=O)=O)cc3)cc2c1` (stereo not shown) [Example 17, (2-{2-[2-Cyclopentyl-1-(4-methanesulfonyl-phenyl)-ethyl]-1H-pyrrolo[2,3-b]pyridin-5-yloxy}-ethyl)-dimethyl-amine], the SC1.5 came to 3.1 µM. As for `CC(C)Oc1cnc2[nH]c(C(CC3CCCC3)c3ccc(S(C)(=O)=O)cc3)cc2c1` (stereo not shown) [Example 18, 2-[2-Cyclopentyl-1-(4-methanesulfonyl-phenyl)-ethyl]-5-isopropoxy-1H-pyrrolo[2,3-b]pyridine], the SC1.5 worked out at 0.719 µM. Regarding `COc1cnc2[nH]c(C(CC3CCCC3)c3ccc(C(F)(F)F)cc3)cc2c1` (stereo not shown) [Example 20, 2-[2-Cyclopentyl-1-(4-trifluoromethyl-phenyl)-ethyl]-5-methoxy-1H-pyrrolo[2,3b]pyridine], the SC1.5 was 0.693 µM. In the case of `COc1cnc2[nH]c(/C(=C/C3CCCO3)c3ccc(S(C)(=O)=O)cc3)cc2c1` (stereo not shown) [Example 21, 2-[(E)-1-(4-Methanesulfonyl-phenyl)-2-(tetrahydro-furan-2-yl)-vinyl]-5-methoxy-1H-pyrrolo[2,3-b]pyridine], the SC1.5 came to 0.821 µM. In the case of `CCOC(=O)C(C)(C)Oc1cnc2[nH]c(C(CC3CCCC3)c3ccc(S(C)(=O)=O)cc3)cc2c1` (stereo not shown) [Example 26, 2-{2-[2-Cyclopentyl-1-(4-methanesulfonyl-phenyl)-ethyl]-1H-pyrrolo[2,3-b]pyridin-5-yloxy}-2-methyl-propionic acid ethyl ester], the SC1.5 worked out at 2.3 µM. Take `CC(C)(Oc1cnc2[nH]c(C(CC3CCCC3)c3ccc(S(C)(=O)=O)cc3)cc2c1)C(=O)O` (stereo not shown) [Example 27, 2-{2-[2-Cyclopentyl-1-(4-methanesulfonyl-phenyl)-ethyl]-1H-pyrrolo[2,3-b]pyridin-5-yloxy}-2-methyl-propionic acid]: the SC1.5 came to 13.5 µM.

As to `CC(C)(CO)Oc1cnc2[nH]c(C(CC3CCCC3)c3ccc(S(C)(=O)=O)cc3)cc2c1` (stereo not shown) [Example 28, 2-{2-[2-Cyclopentyl-1-(4-methanesulfonyl-phenyl)-ethyl]-1H-pyrrolo[2,3-b]pyridin-5-yloxy}-2-methyl-propan-1-ol], the SC1.5 turned out to be 2.8 µM.

`CS(=O)(=O)c1ccc(C(CC2CCCC2)c2cc3cc(OCCO)cnc3[nH]2)cc1` (stereo not shown) [Example 30, 2-{2-[2-Cyclopentyl-1-(4-methanesulfonyl-phenyl)-ethyl]-1H-pyrrolo[2,3-b]pyridin-5-yloxy}-ethanol]: the SC1.5 is 0.8 µM.

Turning to `COc1cnc2[nH]c(C(CC3CCOCC3)c3ccc(S(C)(=O)=O)cc3)cc2c1` (stereo not shown) [Example 31], the SC1.5 worked out at 1.9 µM. As for `COc1cnc2[nH]c(C(CC3CCOCC3)c3ccc(C(F)(F)F)cc3)cc2c1` (stereo not shown) [Example 33, 5-Methoxy-2-[2-(tetrahydro-pyran-4-yl)-1-(4-trifluoromethyl-phenyl)-ethyl]-1H-pyrrolo[2,3-b]pyridine], the SC1.5 worked out at 3.0 µM. Turning to `CS(=O)(=O)c1ccc(C(CC2CCCC2)c2cc3cc(CCO)cnc3[nH]2)cc1` (stereo not shown) [Example 36, 2-{2-[2-Cyclopentyl-1-(4-methanesulfonyl-phenyl)-ethyl]-1H-pyrrolo[2,3-b]pyridin-5-yl}-ethanol], the SC1.5 came to 3.4 µM. For `CN(C)CC(=O)OCc1cnc2[nH]c(C(CC3CCCC3)c3ccc(S(C)(=O)=O)cc3)cc2c1` (stereo not shown) [Example 37, Dimethylamino-acetic acid 2-[2-cyclopentyl-1-(4-methanesulfonyl-phenyl)-ethyl]-1H-pyrrolo[2,3-b]pyridin-5-ylmethyl-ester], the SC1.5 is 4.4 µM. Take `CS(=O)(=O)c1ccc(C(CC2CCCC2)c2cc3cc(CC#N)cnc3[nH]2)cc1` (stereo not shown) [Example 38, {2-[2-Cyclopentyl-1-(4-methanesulfonyl-phenyl)-ethyl]-1H-pyrrolo[2,3-b]pyridin-5-yl}-acetonitrile]: the SC1.5 turned out to be 9.8 µM. On to `CN(C)C(=O)Cc1cnc2[nH]c(C(CC3CCCC3)c3ccc(S(C)(=O)=O)cc3)cc2c1` (stereo not shown) [Example 39, 2-{2-[2-Cyclopentyl-1-(4-methanesulfonyl-phenyl)-ethyl]-1H-pyrrolo[2,3-b]pyridin-5-yl}-N,N-dimethyl-acetamide], for which the SC1.5 turned out to be 9.1 µM. For `CN(C)CCc1cnc2[nH]c(C(CC3CCCC3)c3ccc(S(C)(=O)=O)cc3)cc2c1` (stereo not shown) [Example 40, (2-{2-[2-Cyclopentyl-1-(4-methanesulfonyl-phenyl)-ethyl]-1H-pyrrolo[2,3-b]pyridin-5-yl}-ethyl)-dimethyl-amine], the SC1.5 was found to be 9.0 µM. Regarding `COCc1cnc2[nH]c(C(CC3CCCC3)c3ccc(S(C)(=O)=O)cc3)cc2c1` (stereo not shown) [Example 41, 2-[2-Cyclopentyl-1-(4-methanesulfonyl-phenyl)-ethyl]-5-methoxymethyl-1H-pyrrolo[2,3-b]pyridine], the SC1.5 was found to be 2.8 µM.

For `N#Cc1ccc(C(CC2CCCC2)c2cc3cccnc3[nH]2)cc1` (stereo not shown) [Example 43, 4-[2-Cyclopentyl-1-(1H-pyrrolo[2,3-b]pyridin-2-yl)-ethyl]-benzonitrile], the SC1.5 turned out to be 1.4 µM. Take `COCCCc1cnc2[nH]c(C(CC3CCCC3)c3ccc(S(C)(=O)=O)cc3)cc2c1` (stereo not shown) [Example 44, 2-[2-Cyclopentyl-1-(4-methanesulfonyl-phenyl)-ethyl]-5-(3-methoxy-propyl)-1H-pyrrolo[2,3-b]pyridine]: the SC1.5 is 4.3 µM. Consider `CS(=O)(=O)c1ccc(C(CC2CCCC2)c2cc3cc(CCCO)cnc3[nH]2)cc1` (stereo not shown) [Example 45, 3-{2-[2-Cyclopentyl-1-(4-methanesulfonyl-phenyl)-ethyl]-1H-pyrrolo[2,3-b]pyridin-5-yl}-propan-1-ol], for which the SC1.5 worked out at 14.9 µM.

The record behind these values is patent publication US8222416B2, “Azaindole glucokinase activators” (Hoffmann-La Roche Inc., priority 2009, dated 2012).
